Values of other authors as cited in patent publication US9095514B2, “Pharmaceutical composition” (SUN PHARMA ADVANCED RESEARCH COMPANY LTD., priority 2009, dated 2015).

CC(C)C[C@H](NC(=O)[C@H](Cc1ccccc1)NC(=O)c1cnccn1)B(O)O [Bortezomib, N-(2-pyrazine) carbonyl-L-phenylalanine-L-leucine boronic acid]
stability in certain solvents (Sara Wu et al J. Pharm. Sci 89): quite unstable | solubility of solid bortezomib (at 1 mg/ml in 0.9% w/v of sodium chloride): not soluble | not stable for longer than (stored at 2° C.-8° C., U.S. Pat. No. 6,713,446): 3-6 months | stable for (HPLC purity>97%) (stored at −2° C. to −20° C., U.S. Pat. No. 6,713,446): more than 2 years
